Reference: patent publication US20260053834A1, “COVALENT MODIFIERS OF AKT1 AND USES THEREOF” (Terremoto Biosciences, Inc., priority 2023, published 2026)
Where two headings read alike, the source gives them in different places.

How the values were obtained:
[1] = molecular target: T1, AKT2 (Homo sapiens, UniProt P31751); test: Live cell target engagement by NanoBRET competitive probe displacement, AKT2; format: binding; conditions: transfected HEK293 cells, 2 h at 37° C., read-out: AKT2 IC50: GeoMean IC50
T1 construct: expressed in transfected cells; host or cells: HEK293
T1 sequence (P31751 whole entry): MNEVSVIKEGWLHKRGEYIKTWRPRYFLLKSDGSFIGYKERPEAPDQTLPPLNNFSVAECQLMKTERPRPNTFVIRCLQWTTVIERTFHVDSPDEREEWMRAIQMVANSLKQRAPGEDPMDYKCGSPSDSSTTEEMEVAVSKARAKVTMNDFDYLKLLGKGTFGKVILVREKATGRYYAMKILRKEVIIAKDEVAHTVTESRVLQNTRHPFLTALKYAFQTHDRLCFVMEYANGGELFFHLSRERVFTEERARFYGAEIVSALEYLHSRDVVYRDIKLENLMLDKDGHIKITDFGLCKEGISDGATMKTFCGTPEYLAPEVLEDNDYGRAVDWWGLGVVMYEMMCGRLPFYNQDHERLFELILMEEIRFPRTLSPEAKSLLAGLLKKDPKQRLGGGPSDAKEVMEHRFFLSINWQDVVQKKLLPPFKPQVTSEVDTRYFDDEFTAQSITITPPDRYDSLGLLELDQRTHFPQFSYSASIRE

[2] = molecular target: T2, AKT1 E17K (Homo sapiens, UniProt P31749, E17K); test: Live cell target engagement by NanoBRET competitive probe displacement, AKT1 E17K; format: binding; conditions: transfected HEK293 cells, 2 h at 37° C., read-out: AKT1 E17K IC50: GeoMean IC50
T2 construct: expressed in transfected cells; host or cells: HEK293
T2 sequence (P31749 whole entry E17K): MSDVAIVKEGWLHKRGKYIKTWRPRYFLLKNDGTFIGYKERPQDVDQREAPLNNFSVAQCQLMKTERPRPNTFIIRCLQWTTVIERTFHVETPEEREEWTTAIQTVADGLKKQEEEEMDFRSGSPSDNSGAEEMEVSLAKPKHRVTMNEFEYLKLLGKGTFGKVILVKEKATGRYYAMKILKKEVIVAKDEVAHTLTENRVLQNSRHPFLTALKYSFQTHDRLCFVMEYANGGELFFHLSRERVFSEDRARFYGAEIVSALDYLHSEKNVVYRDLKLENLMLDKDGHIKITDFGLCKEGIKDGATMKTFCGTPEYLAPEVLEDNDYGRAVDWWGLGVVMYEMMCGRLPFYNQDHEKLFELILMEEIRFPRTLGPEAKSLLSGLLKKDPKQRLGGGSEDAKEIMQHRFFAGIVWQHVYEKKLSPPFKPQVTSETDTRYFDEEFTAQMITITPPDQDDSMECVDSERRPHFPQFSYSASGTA

[3] = molecular target: T3, AKT1 WT (Homo sapiens, UniProt P31749); test: Live cell target engagement by NanoBRET competitive probe displacement, AKT1 WT; format: binding; conditions: transfected HEK293 cells, 2 h at 37° C., read-out: AKT1 WT IC50: GeoMean IC50
T3 construct: expressed in transfected cells; host or cells: HEK293
T3 sequence (P31749 whole entry): as the sequence (P31749 whole entry E17K) above, with K17E counted along it

[4] = system: LAPC4 prostate cancer cells, which express the AKT1 E17K allele; test: Antiproliferative effects in LAPC4 cells (CellTiter Glo, 72 h); format: cell-based; conditions: read-out: LAPC4 proliferation IC50: GeoMean IC50
Summary of the method: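 IC50 values come from Hill-equation fitting of luminescence (cellular ATP) after 72 h compound exposure. Treated wells held 1,000 cells each, with compound delivered as DMSO dilutions. Culture medium was IMDM plus 12% FBS.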

SMILES	IC50 [1] [nM]	IC50 [2] [nM]	IC50 [3] [nM]	IC50 ([4]; Homo sapiens, LAPC4, 72 h) [nM]	IC50 [4] [nM]
Nc1ncccc1-c1nc2ccc(-n3cccn3)nc2n1-c1ccc2c(c1)CC[C@@H]2Nc1n[nH]c2c(C=O)cccc12 [Example 148, 3-{[(1S)-5-[2-(2-aminopyridin-3-yl)-5-(pyrazol-1-yl)imidazo[4,5-b]pyridin-3-yl]-2,3-dihydro-1H-inden-1-yl]amino}-1H-indazole-7-carbaldehyde]	100 to 2000	10 to 100	100 to 2000	100 to 2000	–
Nc1ncccc1-c1nc2ccc(-n3cccn3)nc2n1-c1ccc2c(c1)CC[C@@H]2NC(=O)c1cc(Cl)c(O)c(C=O)c1 [Example 93, N-[(1S)-5-[2-(2-aminopyridin-3-yl)-5-(pyrazol-1-yl)imidazo[4,5-b]pyridin-3-yl]-2,3-dihydro-1H-inden-1-yl]-3-chloro-5-formyl-4-hydroxybenzamide]	100 to 2000	10 to 100	10 to 100	100 to 2000	–
Nc1ncccc1-c1nc2ccc(-c3cn[nH]c3)nc2n1-c1ccc2c(c1)CC[C@@H]2NC(=O)c1ccc(O)c(C=O)c1 [Example 67, N-[(1S)-5-[2-(2-aminopyridin-3-yl)-5-(1H-pyrazol-4-yl)imidazo[4,5-b]pyridin-3-yl]-2,3-dihydro-1H-inden-1-yl]-3-formyl-4-hydroxybenzamide]	100 to 2000	100 to 2000	100 to 2000	100 to 2000	–
Nc1ncccc1-c1nc2ccc(-c3cnccn3)nc2n1-c1ccc2c(c1)CC[C@@H]2NC(=O)c1ccc(O)c(C=O)c1 [Example 29, N-[(1S)-5-[2-(2-aminopyridin-3-yl)-5-(pyrazin-2-yl)imidazo[4,5-b]pyridin-3-yl]-2,3-dihydro-1H-inden-1-yl]-3-formyl-4-hydroxybenzamide]	100 to 2000	< 10	10 to 100	10 to 100	–
Nc1ncccc1-c1nc2ccc(-c3nccs3)nc2n1-c1ccc2c(c1)CC[C@@H]2NC(=O)c1ccc(O)c(C=O)c1 [Example 57, N-[(1S)-5-[2-(2-aminopyridin-3-yl)-5-(1,3-thiazol-2-yl)imidazo[4,5-b]pyridin-3-yl]-2,3-dihydro-1H-inden-1-yl]-3-formyl-4-hydroxybenzamide]	100 to 2000	10 to 100	10 to 100	10 to 100	–
Nc1ncccc1-c1nc2ccc(-c3cnn(C(F)F)c3)nc2n1-c1ccc2c(c1)CC[C@@H]2NC(=O)c1ccc(O)c(C=O)c1 [Example 61, N-[(1S)-5-[2-(2-aminopyridin-3-yl)-5-[1-(difluoromethyl)pyrazol-4-yl]imidazo[4,5-b]pyridin-3-yl]-2,3-dihydro-1H-inden-1-yl]-3-formyl-4-hydroxybenzamide]	100 to 2000	10 to 100	10 to 100	10 to 100	–
C#Cc1cc(C(=O)N[C@H]2CCc3cc(-n4c(-c5cccnc5N)nc5ccc(-n6cccn6)nc54)ccc32)cc(C=O)c1O [Example 101, N-[(1S)-5-[2-(2-aminopyridin-3-yl)-5-(pyrazol-1-yl)imidazo[4,5-b]pyridin-3-yl]-2,3-dihydro-1H-inden-1-yl]-3-ethynyl-5-formyl-4-hydroxybenzamide]	100 to 2000	10 to 100	10 to 100	100 to 2000	–
CSc1ccn(-c2ccc3nc(-c4cccnc4N)n(-c4ccc5c(c4)CC[C@@H]5NC(=O)c4ccc(O)c(C=O)c4)c3n2)n1 [Example 124, N-[(1S)-5-[2-(2-aminopyridin-3-yl)-5-[3-(methylsulfanyl)pyrazol-1-yl]imidazo[4,5-b]pyridin-3-yl]-2,3-dihydro-1H-inden-1-yl]-3-formyl-4-hydroxybenzamide]	100 to 2000	10 to 100	10 to 100	10 to 100	–
Nc1ncccc1-c1nc2ccc(-n3cccn3)nc2n1-c1ccc2c(c1)CC[C@@H]2NC(=O)c1cc(C=O)c(O)c(F)c1Cl [Example 110, N-[(1S)-5-[2-(2-aminopyridin-3-yl)-5-(pyrazol-1-yl)imidazo[4,5-b]pyridin-3-yl]-2,3-dihydro-1H-inden-1-yl]-2-chloro-3-fluoro-5-formyl-4-hydroxybenzamide]	100 to 2000	10 to 100	10 to 100	100 to 2000	–
CC(=O)c1cc(C(=O)N[C@H]2CCc3cc(-n4c(-c5cccnc5N)nc5ccc(-n6cccn6)nc54)ccc32)cc(C=O)c1O [Example 102, (S)-3-acetyl-N-(5-(2-(2-aminopyridin-3-yl)-5-(1H-pyrazol-1-yl)-3H-imidazo[4,5-b]pyridin-3-yl)-2,3-dihydro-1H-inden-1-yl)-5-formyl-4-hydroxybenzamide]	10 to 100	10 to 100	10 to 100	100 to 2000	–
Nc1ncccc1-c1nc2ccc(-c3ccccc3)nc2n1-c1ccc2c(c1)CC[C@@H]2NC(=O)c1cc(F)c(O)c(C=O)c1 [Example 8, N-[(1S)-5-[2-(2-aminopyridin-3-yl)-5-phenylimidazo[4,5-b]pyridin-3-yl]-2,3-dihydro-1H-inden-1-yl]-3-fluoro-5-formyl-4-hydroxybenzamide]	100 to 2000	10 to 100	10 to 100	10 to 100	–
Cc1coc(-c2ccc3nc(-c4cccnc4N)n(-c4ccc5c(c4)CC[C@@H]5NC(=O)c4ccc(O)c(C=O)c4)c3n2)n1 [Example 178, N-[(1S)-5-[2-(2-aminopyridin-3-yl)-5-(4-methyl-1,3-oxazol-2-yl)imidazo[4,5-b]pyridin-3-yl]-2,3-dihydro-1H-inden-1-yl]-3-formyl-4-hydroxybenzamide]	100 to 2000	10 to 100	10 to 100	10 to 100	–
Nc1ncccc1-c1nc2ccc(-n3cccn3)nc2n1-c1ccc2c(c1)CC(F)[C@@H]2NC(=O)c1ccc(O)c(C=O)c1 (single isomer, unassigned) [Example 257, N-[(1R,2S*)-5-[2-(2-aminopyridin-3-yl)-5-(pyrazol-1-yl)imidazo[4,5-b]pyridin-3-yl]-2-fluoro-2,3-dihydro-1H-inden-1-yl]-3-formyl-4-hydroxybenzamide]	100 to 2000	10 to 100	10 to 100	–	100 to 2000
CN1CCN(c2cccc(-c3ccc4nc(-c5cccnc5N)n(-c5ccc6c(c5)CC[C@@H]6NC(=O)c5ccc(O)c(C=O)c5)c4n3)c2)CC1 [Example 19, (S)—N-(5-(2-(2-aminopyridin-3-yl)-5-(3-(4-methylpiperazin-1-yl)phenyl)-3H-imidazo[4,5-b]pyridin-3-yl)-2,3-dihydro-1H-inden-1-yl)-3-formyl-4-hydroxybenzamide]	< 10	< 10	< 10	10 to 100	–
C#Cc1cc(O)c(C=O)cc1C(=O)N[C@H]1CCc2cc(-n3c(-c4cccnc4N)nc4ccc(-n5cccn5)nc43)ccc21 [Example 145, N-[(1S)-5-[2-(2-aminopyridin-3-yl)-5-(pyrazol-1-yl)imidazo[4,5-b]pyridin-3-yl]-2,3-dihydro-1H-inden-1-yl]-2-ethynyl-5-formyl-4-hydroxybenzamide]	100 to 2000	10 to 100	10 to 100	100 to 2000	–
Nc1ncccc1-c1nc2ccc(-c3nccs3)nc2n1-c1ccc2c(c1)CC[C@@H]2NC(=O)c1cc(C=O)c(O)c(F)c1F [Example 140, (S)—N-(5-(2-(2-aminopyridin-3-yl)-5-(thiazol-2-yl)-3H-imidazo[4,5-b]pyridin-3-yl)-2,3-dihydro-1H-inden-1-yl)-2,3-difluoro-5-formyl-4-hydroxybenzamide]	10 to 100	< 10	< 10	< 10	–
Nc1ncccc1-c1nc2ccc(-c3ccccc3)nc2n1-c1ccc2c(c1)CC[C@@H]2NC(=O)c1cc(C=O)c(O)cc1F [Example 16, N-[(1S)-5-[2-(2-aminopyridin-3-yl)-5-phenylimidazo[4,5-b]pyridin-3-yl]-2,3-dihydro-1H-inden-1-yl]-2-fluoro-5-formyl-4-hydroxybenzamide]	10 to 100	10 to 100	10 to 100	100 to 2000	–
Nc1ncccc1-c1nc2ccc(-c3ccn(C4COC4)n3)nc2n1-c1ccc2c(c1)CC[C@@H]2NC(=O)c1ccc(O)c(C=O)c1 [Example 171, N-[(1S)-5-[2-(2-aminopyridin-3-yl)-5-[1-(oxetan-3-yl)pyrazol-3-yl]imidazo[4,5-b]pyridin-3-yl]-2,3-dihydro-1H-inden-1-yl]-3-formyl-4-hydroxybenzamide]	100 to 2000	10 to 100	10 to 100	100 to 2000	–
C#Cc1cc(-n2cccn2)nc2c1nc(-c1cccnc1N)n2-c1ccc2c(c1)CC[C@@H]2NC(=O)c1ccc(O)c(C=O)c1 [Example 201, N-[(1S)-5-[2-(2-aminopyridin-3-yl)-7-ethynyl-5-(pyrazol-1-yl)imidazo[4,5-b]pyridin-3-yl]-2,3-dihydro-1H-inden-1-yl]-3-formyl-4-hydroxybenzamide]	100 to 2000	10 to 100	100 to 2000	100 to 2000	–
COc1cc(-n2cccn2)nc2c1nc(-c1cccnc1N)n2-c1ccc2c(c1)CC[C@@H]2NC(=O)c1ccc(O)c(C=O)c1 [Example 200, N-[(1S)-5-[2-(2-aminopyridin-3-yl)-7-methoxy-5-(pyrazol-1-yl)imidazo[4,5-b]pyridin-3-yl]-2,3-dihydro-1H-inden-1-yl]-3-formyl-4-hydroxybenzamide]	100 to 2000	10 to 100	10 to 100	100 to 2000	–
